Assay results: publication PMC8143342, “β-Ionone Attenuates Dexamethasone-Induced Suppression of Collagen and Hyaluronic Acid Synthesis in Human Dermal Fibroblasts” (Biomolecules, 2021)

Molecular target: T1, glucocorticoid receptor (GR) (Homo sapiens, UniProt P04150)
T1 construct: gene NR3C1; full-length GR
T1 sequence (P04150 1-777): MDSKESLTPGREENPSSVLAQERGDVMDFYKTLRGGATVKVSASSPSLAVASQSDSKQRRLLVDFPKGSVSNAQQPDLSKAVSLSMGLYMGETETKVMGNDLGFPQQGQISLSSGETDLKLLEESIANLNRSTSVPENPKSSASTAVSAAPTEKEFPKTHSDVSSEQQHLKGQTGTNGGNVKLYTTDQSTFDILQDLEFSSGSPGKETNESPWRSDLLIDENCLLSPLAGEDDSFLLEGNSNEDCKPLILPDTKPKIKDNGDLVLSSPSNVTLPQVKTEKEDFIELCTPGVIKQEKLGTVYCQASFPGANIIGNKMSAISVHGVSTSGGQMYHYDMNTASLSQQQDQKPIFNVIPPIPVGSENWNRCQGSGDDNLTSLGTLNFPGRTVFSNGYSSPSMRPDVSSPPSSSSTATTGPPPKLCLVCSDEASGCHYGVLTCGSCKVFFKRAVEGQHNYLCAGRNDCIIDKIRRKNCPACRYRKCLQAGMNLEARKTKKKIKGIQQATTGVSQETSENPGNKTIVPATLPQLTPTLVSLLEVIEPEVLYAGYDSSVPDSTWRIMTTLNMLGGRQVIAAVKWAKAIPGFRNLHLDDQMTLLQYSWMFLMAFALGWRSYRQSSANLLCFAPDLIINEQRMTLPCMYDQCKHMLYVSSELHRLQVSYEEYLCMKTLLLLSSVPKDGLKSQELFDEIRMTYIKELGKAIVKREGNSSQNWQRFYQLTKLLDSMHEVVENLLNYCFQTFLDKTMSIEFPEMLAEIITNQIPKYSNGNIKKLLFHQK
Experiment: fluorescence polarization competition with fluorescent glucocorticoid ligand (PolarScreen GR Competitor Assay), purified GR
Assay type: binding

Question: CC(=O)/C=C/C1=C(C)CCCC1(C)C [β-ionone] was tested. Which IC50 did it give?
Answer: 66.1 µM
